Data: ChEMBL document CHEMBL1146378, “Synthesis and cytotoxicity of novel fatty acid-nucleoside conjugates” (2007)
The source made the active and inactive calls. No cut-off for these calls is given here.

What was measured:
Assay type in all cases: functional
[1] = (§1) Cytotoxicity against human Ec9706 cells at 100 uM after 48 hrs by MTT assay; settings: EC9706, 48 h
A549 [2] = test: Cytotoxicity against human A549 cells at 200 uM after 48 hrs by MTT assay; settings: for inhibition at 200 µM: A549, 48 h
[3] = (§2) Cytotoxicity against human Ec9706 cells at 200 uM after 48 hrs by MTT assay; settings: EC9706, 48 h
A549 [4] = test: Cytotoxicity against human A549 cells at 400 uM after 48 hrs by MTT assay; settings: for inhibition at 400 µM: A549, 48 h
A549 [5] = test: Cytotoxicity against human A549 cells at 100 uM after 48 hrs by MTT assay; settings: for inhibition at 100 µM: A549, 48 h
[6] = (§3) Cytotoxicity against human Ec9706 cells at 400 uM after 48 hrs by MTT assay; settings: EC9706, 48 h
EC9706 [7] = test: (§4) Cytotoxicity against human Ec9706 cells at 50 uM after 48 hrs by MTT assay
A549 [8] = test: Cytotoxicity against human A549 cells at 50 uM after 48 hrs by MTT assay; settings: for inhibition at 50 µM: A549, 48 h
EC9706 [9] = test: as §1
EC9706 [10] = test: as §2
EC9706 [11] = test: as §3
[12] = as §4; settings: EC9706, 48 h

Compound | inhibition at 100 µM [1] [%] | inhibition at 200 µM (A549 [2]) [%] | inhibition at 200 µM [3] [%] | inhibition at 400 µM (A549 [4]) [%] | inhibition at 100 µM (A549 [5]) [%] | inhibition at 400 µM [6] [%] | Activity (EC9706 [7]) | inhibition at 50 µM (A549 [8]) [%] | Activity (EC9706 [9]) | Activity (A549 [2]) | Activity (EC9706 [10]) | Activity (A549 [4]) | Activity (A549 [5]) | Activity (EC9706 [11]) | inhibition at 50 µM [12] [%] | Activity (A549 [8])
CCCCC/C=C\C/C=C\CCCCCCCC(=O)OCCn1c(=O)c(F)cn([C@H]2CCCO2)c1=O | 14.4 | 24.7 | 31.9 | 90.7 | 11 | 54.4 | inactive | 1.8 | – | – | – | – | – | – | – | –
O=c1c(F)cn([C@H]2CCCO2)c(=O)n1CCO | – | – | – | – | – | – | – | – | inactive | inactive | inactive | inactive | inactive | inactive | – | –
CCCCC/C=C\C/C=C\C/C=C\C/C=C\CCCC(=O)OCCn1c(=O)c(F)cn([C@H]2CCCO2)c1=O | 30.8 | 78.2 | 59.9 | 92.1 | 33.8 | 69.9 | – | 1.6 | – | – | – | – | – | – | 19.3 | –
CCCCCCCC/C=C\CCCCCCCC(=O)OCCn1c(=O)c(F)cn([C@H]2CCCO2)c1=O | 4.9 | – | – | – | 4.8 | – | – | 2.5 | – | – | – | – | – | – | 3.7 | –
O=c1[nH]c(=O)n(C2CCCO2)cc1F (stereo not given) [TEGAFUR] | – | 15.2 | 7.8 | 17.8 | 12.7 | 17.4 | – | – | inactive | – | – | – | – | – | – | –
CCCCCCCCCCCCCCCCCC(=O)OCCn1c(=O)c(F)cn([C@H]2CCCO2)c1=O | – | – | – | – | – | – | inactive | – | inactive | – | – | – | inactive | – | – | inactive
CCCCCCCCCCCC(=O)OCCn1c(=O)c(F)cn([C@H]2CCCO2)c1=O | – | – | – | – | – | – | inactive | – | inactive | – | – | – | inactive | – | – | inactive
